“Also recorded” adds a separate entry of the source. Like-named read-outs stand apart in the source and are kept apart here.
Columns and labels:
ruLAP1 = ruLAP1 (Trichophyton rubrum, UniProt Q5QHG5); assay type: biochemical; details: for effect of inhibitor on ruLAP1 activity: Leu-AMC 5 mM
ruLAP2 = ruLAP2 (Trichophyton rubrum, UniProt Q5QHG6); assay type: biochemical; details: for effect of inhibitor on ruLAP2 activity: Leu-AMC 5 mM; for ruLAP2 activity as percentage of control reaction without inhibitor: Leu-MCA substrate, 15 min pre-incubation
fuLAP1 = fuLAP1 (Aspergillus fumigatus, UniProt Q5VJG6); assay: biochemical; assay type: biochemical; details: for effect of inhibitor on fuLAP1 activity: Leu-AMC 5 mM
fuLAP2 = assay type: biochemical, Aspergillus fumigatus; details: for effect of inhibitor on fuLAP2 activity: Leu-AMC 5 mM; for fuLAP2 activity as percentage of control reaction without inhibitor: Leu-MCA substrate, 15 min pre-incubation
[1] = molecular target: T1, pkLAP (microsomal LAP from porcine kidney) (Sus scrofa, UniProt P15145); assay: Effect of inhibitors and metallic cations on LAP activity (Leu-AMC); assay type: biochemical
T1 construct: purchased Sigma; host or cells: porcine kidney
T1 sequence (P15145 1-963): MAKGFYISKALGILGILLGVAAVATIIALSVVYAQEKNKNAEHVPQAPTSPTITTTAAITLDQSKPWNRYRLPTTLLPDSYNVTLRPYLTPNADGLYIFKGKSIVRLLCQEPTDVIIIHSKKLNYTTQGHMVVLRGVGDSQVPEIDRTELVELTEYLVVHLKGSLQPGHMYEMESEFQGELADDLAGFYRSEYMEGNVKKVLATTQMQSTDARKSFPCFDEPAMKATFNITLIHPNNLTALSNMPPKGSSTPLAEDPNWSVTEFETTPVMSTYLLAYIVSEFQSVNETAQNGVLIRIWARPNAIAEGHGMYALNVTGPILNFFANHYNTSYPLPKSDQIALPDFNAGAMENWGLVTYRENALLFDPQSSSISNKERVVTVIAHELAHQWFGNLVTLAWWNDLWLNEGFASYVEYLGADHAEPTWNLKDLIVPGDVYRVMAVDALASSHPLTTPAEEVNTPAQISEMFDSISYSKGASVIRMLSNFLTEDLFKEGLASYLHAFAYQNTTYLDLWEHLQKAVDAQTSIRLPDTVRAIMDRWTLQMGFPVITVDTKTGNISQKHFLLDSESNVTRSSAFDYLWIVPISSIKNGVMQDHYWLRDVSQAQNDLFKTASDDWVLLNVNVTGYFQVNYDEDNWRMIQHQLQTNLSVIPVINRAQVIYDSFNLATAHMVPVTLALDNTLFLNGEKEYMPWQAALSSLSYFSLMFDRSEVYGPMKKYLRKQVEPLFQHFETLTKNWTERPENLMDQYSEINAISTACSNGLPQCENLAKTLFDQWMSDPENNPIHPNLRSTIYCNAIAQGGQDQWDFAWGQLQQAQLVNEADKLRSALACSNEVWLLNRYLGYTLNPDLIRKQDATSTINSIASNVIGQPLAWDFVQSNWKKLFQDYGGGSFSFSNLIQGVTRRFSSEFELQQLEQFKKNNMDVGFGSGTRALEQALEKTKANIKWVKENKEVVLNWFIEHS

[2] = system: gliadin 33mer (fragment 57-89 of gliadin MM1); assay: Digestion of gliadin 33mer (RP-HPLC, ESI-MS); assay type: biochemical, wheat; details: for digestion of gliadin 33mer, enzyme alone: 37° C.
[3] = assay type: biochemical
[4] = assay type: biochemical; details: substrate Lys(Abz)Pro-PropNA 5 mM, 37° C., 60 min
[5] = inhibitor 500 μM, Leu-MCA substrate, 15 min pre-incubation, read-out: fuLAP1 activity as percentage of control reaction without inhibitor
[6] = inhibitor 1 mM, Leu-MCA substrate, 15 min pre-incubation
[7] = inhibitor 5 mM, Leu-MCA substrate, 15 min pre-incubation
[8] = inhibitor 500 μM, Leu-MCA substrate, 15 min pre-incubation

Chain of ruLAP2 (Q5QHG6 20-495): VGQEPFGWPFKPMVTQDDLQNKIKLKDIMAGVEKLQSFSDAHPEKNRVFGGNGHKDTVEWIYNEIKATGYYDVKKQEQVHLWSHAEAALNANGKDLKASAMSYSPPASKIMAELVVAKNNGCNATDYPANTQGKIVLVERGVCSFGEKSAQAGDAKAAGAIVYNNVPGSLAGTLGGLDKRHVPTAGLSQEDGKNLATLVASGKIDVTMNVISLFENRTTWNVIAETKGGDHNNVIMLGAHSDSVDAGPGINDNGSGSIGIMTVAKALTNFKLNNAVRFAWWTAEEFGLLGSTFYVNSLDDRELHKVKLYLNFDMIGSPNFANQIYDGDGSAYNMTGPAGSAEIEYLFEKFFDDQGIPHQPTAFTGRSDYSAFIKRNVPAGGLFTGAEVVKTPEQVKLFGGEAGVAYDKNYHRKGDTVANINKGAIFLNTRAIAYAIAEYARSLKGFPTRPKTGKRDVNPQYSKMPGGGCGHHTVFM
Chain of ruLAP1 (Q5QHG5 21-373): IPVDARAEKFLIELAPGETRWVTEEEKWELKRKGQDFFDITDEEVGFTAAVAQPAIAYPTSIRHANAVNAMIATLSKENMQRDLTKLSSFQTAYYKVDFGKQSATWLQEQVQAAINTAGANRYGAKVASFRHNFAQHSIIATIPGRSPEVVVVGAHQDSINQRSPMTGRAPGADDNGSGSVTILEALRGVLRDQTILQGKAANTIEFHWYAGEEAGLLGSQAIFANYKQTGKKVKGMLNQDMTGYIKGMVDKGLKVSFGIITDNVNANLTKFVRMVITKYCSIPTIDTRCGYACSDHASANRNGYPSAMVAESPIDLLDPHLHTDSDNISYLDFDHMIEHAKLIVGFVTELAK

## CC(C)C[C@@H](N)[C@H](O)C(=O)N[C@H](C(=O)N[C@H](C(=O)N[C@@H](CC(=O)O)C(=O)O)C(C)C)C(C)C [amastatin]
ruLAP1
  effect of inhibitor on ruLAP1 activity: strongly or totally inhibited
ruLAP2
  effect of inhibitor on ruLAP2 activity: strongly or totally inhibited
fuLAP1
  effect of inhibitor on fuLAP1 activity: strongly or totally inhibited
fuLAP1; [5]
  remaining activity at 500 µM: 17%
fuLAP2
  effect of inhibitor on fuLAP2 activity: strongly or totally inhibited
fuLAP2; inhibitor 500 μM
  fuLAP2 activity as percentage of control reaction without inhibitor: 0%
[1]
  effect of inhibitor on pkLAP activity: strongly or totally inhibited
[1]; read-out: pkLAP activity as percentage of control reaction without inhibitor
  remaining activity at 500 µM: 0%

## N=C(N)c1ccccc1 [benzamidine]
ruLAP1
  effect of inhibitor on ruLAP1 activity: no clear inhibitory effects
ruLAP2
  effect of inhibitor on ruLAP2 activity: no clear inhibitory effects
fuLAP1
  effect of inhibitor on fuLAP1 activity: no clear inhibitory effects
fuLAP1; inhibitor 40 μM, Leu-MCA substrate, 15 min pre-incubation, read-out: fuLAP1 activity as percentage of control reaction without inhibitor
  remaining activity at 40 µM: 77%
fuLAP2
  effect of inhibitor on fuLAP2 activity: no clear inhibitory effects
fuLAP2; inhibitor 40 μM
  fuLAP2 activity as percentage of control reaction without inhibitor: 91%
[1]; Leu-AMC 5 mM
  effect of inhibitor on pkLAP activity: no clear inhibitory effects
[1]; inhibitor 40 μM, Leu-MCA substrate, 15 min pre-incubation, read-out: pkLAP activity as percentage of control reaction without inhibitor
  remaining activity at 40 µM: 75%

## CC(C)C[C@H](NC(=O)[C@@H](O)[C@H](N)Cc1ccccc1)C(=O)O [bestatin]
ruLAP1
  effect of inhibitor on ruLAP1 activity: inhibited
ruLAP2
  effect of inhibitor on ruLAP2 activity: partial inhibitory effect
fuLAP1
  effect of inhibitor on fuLAP1 activity: inhibited
fuLAP1; [5]
  remaining activity at 500 µM: 11%
fuLAP2
  effect of inhibitor on fuLAP2 activity: partial inhibitory effect
fuLAP2; inhibitor 500 μM
  fuLAP2 activity as percentage of control reaction without inhibitor: 88%
[1]; Leu-AMC 5 mM
  effect of inhibitor on pkLAP activity: inhibited
[1]; inhibitor 500 μM, Leu-MCA substrate, 15 min pre-incubation, read-out: pkLAP activity as percentage of control reaction without inhibitor
  remaining activity at 500 µM: 24%

## c1cnc2c(c1)ccc1cccnc12 [orthophenanthroline]
ruLAP1; [6]
  ruLAP1 activity as percentage of control reaction without inhibitor: 0%
ruLAP1; [7]
  ruLAP1 activity as percentage of control reaction without inhibitor: 0%
ruLAP2; inhibitor 1 mM
  ruLAP2 activity as percentage of control reaction without inhibitor: 0%
ruLAP2; inhibitor 5 mM
  ruLAP2 activity as percentage of control reaction without inhibitor: 0%
fuLAP1; [6]
  fuLAP1 activity as percentage of control reaction without inhibitor: 0%
fuLAP1; [7]
  fuLAP1 activity as percentage of control reaction without inhibitor: 0%
fuLAP2; inhibitor 1 mM
  fuLAP2 activity as percentage of control reaction without inhibitor: 0%
fuLAP2; inhibitor 5 mM
  fuLAP2 activity as percentage of control reaction without inhibitor: 0%
[1]; [6]
  pkLAP activity as percentage of control reaction without inhibitor: 0%
[1]; [7]
  pkLAP activity as percentage of control reaction without inhibitor: 0%

## O=C(O)c1cc[c]([Hg][Cl])cc1 [p-chloromercuribenzoate, p-chloromercuribenzoic acid]
ruLAP1; 500 µM
  ruLAP1 activity as percentage of control reaction without inhibitor: 32%
ruLAP2
  effect of inhibitor on ruLAP2 activity: blunted the activity
ruLAP2; inhibitor 500 μM
  ruLAP2 activity as percentage of control reaction without inhibitor: 21%
fuLAP1; [8]
  fuLAP1 activity as percentage of control reaction without inhibitor: 90%
fuLAP2; inhibitor 500 μM
  fuLAP2 activity as percentage of control reaction without inhibitor: 96%
[1]; [8]
  pkLAP activity as percentage of control reaction without inhibitor: 59%

## Chymotrypsin
[2]
  digestion of the peptide, with addition of ruLAP2: not able to breakdown
  digestion of gliadin 33mer, enzyme alone: not able to breakdown
[2]; same conditions, E/S (w:w) 1:50
  digestion of the peptide, with addition of DPPIV: not able to breakdown

B1: fuLAP1: A. fumigatus leucine aminopeptidase, 388 amino acid residues (SEQ ID NO: 12) (protein, listed as Aspergillus fumigatus)
chain: MKVLTAIALSAIAFTGAVAAVITQEAFLNNPRIHHDQEKYLIELAPYRTRWVTEEEKWALKLDGVNFIDITEEHNTGFYPTLHSASYVKYPPKMQYAEEVAALNKNLSKENMKANLERFTSFHTRYYKSQTGIRSATWLFDQVQRVVSESGAAEYGATVERFSHPWGQFSIIARIPGRTNKTVVLGAHQDSINLFLPSILAAPGADDDGSGTVTILEALRGLLQSDAIAKGNASNTVEFHWYSAEEGGMLGSQAIFSNYKRNRREIKAMLQQDMTGYVQGALNAGVEEAIGIMVDYVDQGLTQFLKDVVTAYCSVGYLETKCGYACSDHTSASKYGYPAAMATEAEMENTNKKIHTTDDKIKYLSFDHMLEHAKLSLGFAFELAFAPF
[3]; compared to Leu-AMC
  hydrolytic activity toward Arg-AMC: appreciated
  hydrolytic activity toward Phe-AMC: appreciated
  hydrolytic activity toward Val-AMC: appreciated
[3]; substrate Ala-AMC 5 mM, 37° C., 60 min
  hydrolytic activity toward Ala-AMC in comparison to Leu-MCA used as a standard: 4.7%
[3]; substrate Arg-AMC 5 mM, 37° C., 60 min
  hydrolytic activity toward Arg-AMC in comparison to Leu-MCA used as a standard: 53.9%
[3]; substrate Asn-AMC 5 mM, 37° C., 60 min
  hydrolytic activity toward Asn-AMC in comparison to Leu-MCA used as a standard: 29.4%
[3]; substrate Asp-AMC 5 mM, 37° C., 60 min
  hydrolytic activity toward Asp-AMC in comparison to Leu-MCA used as a standard: 0.8%
[3]; substrate Cys-AMC 5 mM, 37° C., 60 min
  hydrolytic activity toward Cys-AMC in comparison to Leu-MCA used as a standard: 5.0%
[3]; substrate Gln-AMC 5 mM, 37° C., 60 min
  hydrolytic activity toward Gln-AMC in comparison to Leu-MCA used as a standard: 44.9%
[3]; substrate Glu-AMC 5 mM, 37° C., 60 min
  hydrolytic activity toward Glu-AMC in comparison to Leu-MCA used as a standard: 0.0%
[3]; substrate Gly-AMC 5 mM, 37° C., 60 min
  hydrolytic activity toward Gly-AMC in comparison to Leu-MCA used as a standard: 0.8%
[3]; substrate Gly-Pro-AMC 5 mM, 37° C., 60 min
  hydrolytic activity toward Gly-Pro-AMC in comparison to Leu-MCA used as a standard: 5.4%
[3]; substrate His-AMC 5 mM, 37° C., 60 min
  hydrolytic activity toward His-AMC in comparison to Leu-MCA used as a standard: 0.8%
[3]; substrate Hyp-AMC 5 mM, 37° C., 60 min
  hydrolytic activity toward Hyp-AMC in comparison to Leu-MCA used as a standard: 3.9%
[3]; substrate Ile-AMC 5 mM, 37° C., 60 min
  hydrolytic activity toward Ile-AMC in comparison to Leu-MCA used as a standard: 13.2%
[3]; substrate Leu-AMC
  hydrolysis of Leu-AMC: efficiently hydrolyzed; also recorded: common preference
[3]; substrate Leu-AMC 5 mM, 37° C., 60 min
  hydrolytic activity toward Leu-AMC in comparison to Leu-MCA used as a standard: 100.0%
[3]; substrate Lys-AMC 5 mM, 37° C., 60 min
  hydrolytic activity toward Lys-AMC in comparison to Leu-MCA used as a standard: 7.7%
[3]; substrate Met-AMC 5 mM, 37° C., 60 min
  hydrolytic activity toward Met-AMC in comparison to Leu-MCA used as a standard: 116.9%
[3]; substrate Phe-AMC 5 mM, 37° C., 60 min
  hydrolytic activity toward Phe-AMC in comparison to Leu-MCA used as a standard: 163.7%
[3]; substrate Pro-AMC 5 mM, 37° C., 60 min
  hydrolytic activity toward Pro-AMC in comparison to Leu-MCA used as a standard: 12.0%
[3]; substrate Pyr-AMC 5 mM, 37° C., 60 min
  hydrolytic activity toward Pyr-AMC in comparison to Leu-MCA used as a standard: 0.0%
[3]; substrate Ser-AMC 5 mM, 37° C., 60 min
  hydrolytic activity toward Ser-AMC in comparison to Leu-MCA used as a standard: 10.3%
[3]; substrate Thr-AMC 5 mM, 37° C., 60 min
  hydrolytic activity toward Thr-AMC in comparison to Leu-MCA used as a standard: 5.1%
[3]; substrate Val-AMC 5 mM, 37° C., 60 min
  hydrolytic activity toward Val-AMC in comparison to Leu-MCA used as a standard: 27.6%
[4]
  hydrolytic activity toward Lys(Abz)Pro-PropNA in comparison to Leu-MCA used as a standard: 0.0%

B2: Cytosolic porcine kidney aminopeptidase: cytosolic leucine aminopeptidase from porcine kidney, Sigma (protein, UniProt P28839 1-519, looked up)
Cytosol aminopeptidase: MFLLPLPAAARVAVRQLSVRRFWGPGPDAANMTKGLVLGIYSKEKEDDAPQFTSAGENFDKLVSGKLREILNISGPPLKAGKTRTFYGLHEDFSSVVVVGLGKKGAGVDDQENWHEGKENIRAAVAAGCRQIQDLEIPSVEVDPCGDAQAAAEGAVLGLYEYDELKQKKKVVVSAKLHGSGDQEAWQRGVLFASGQNLARHLMETPANEMTPTRFAEVIEKNLKSASSKTDVHIRPKSWIEEQEMGSFLSVAKGSEEPPVFLEIHYKGSPDASDPPLVFVGKGITFDSGGISIKASANMDLMRADMGGAATICSTIVSAAKLDLPINLVGLAPLCENMPSGKANKPGDVVRAKNGKTIQVDNTDAEGRLILADALCYAHTFNPKVIINAATLTGAMDIALGSGATGVFTNSSWLWNKLFEASIETGDRVWRMPLFEHYTKQIVDCQLADVNNIGKYRSAGACTAAAFLKEFVTHPKWAHLDIAGVMTNKDEVPYLRKGMAGRPTRTLIEFLLRFSQDSA
[2]
  digestion of gliadin 33mer, enzyme alone: totally inactive
